Laboratory results as given in BigSolDB 2.1.

O=C(O)c1ccc(C(=O)O)o1
solubility (mole fraction)
Settings	in MIBK	in acetic acid	in acetonitrile	in isobutanol	in methanol	in methyl acetate	in n-butanol	in water
313.15 K	0.000136	0.000235	6.11e-05	0.00168	0.00428	7.78e-05	0.00266	0.000203
318.15 K	0.000184	0.000272	9.15e-05	0.00198	0.00489	0.000113	0.00302	0.000225
323.15 K	0.000253	0.000331	0.000112	0.0023	0.0054	0.000164	0.00346	0.000283
328.15 K	0.000296	0.000404	0.000136	0.0027	0.0068	0.000238	0.00408	0.00037
333.15 K	0.000338	0.000478	0.000166	0.00323	0.00801	0.000285	0.00469	0.000421
338.15 K	0.000429	0.000555	0.000212	0.00372	0.00869	0.000377	0.00524	0.000465
343.15 K	0.000536	0.000717	0.000248	0.00412	0.00894	0.000464	0.00572	0.000598
348.15 K	0.000631	0.00082	0.000278	0.00482	–	0.000549	0.00663	0.000641
353.15 K	0.000666	0.000965	0.000341	0.00548	–	0.00062	0.00741	0.000781
358.15 K	0.000721	0.00115	0.000409	0.00607	–	0.000659	0.0082	0.000908
363.15 K	0.000863	0.00134	0.000487	0.00682	–	0.000721	0.00916	0.0011
